Data reported in paper PMC2913105 (British Journal of Pharmacology, 2010).

How the values were obtained:
P2Y14 receptors = biological target: T1, P2Y14 receptors (Rattus norvegicus, UniProt O35881); format: cell-based; settings: agonist 10 µM; not shown
T1 sequence (O35881 1-305): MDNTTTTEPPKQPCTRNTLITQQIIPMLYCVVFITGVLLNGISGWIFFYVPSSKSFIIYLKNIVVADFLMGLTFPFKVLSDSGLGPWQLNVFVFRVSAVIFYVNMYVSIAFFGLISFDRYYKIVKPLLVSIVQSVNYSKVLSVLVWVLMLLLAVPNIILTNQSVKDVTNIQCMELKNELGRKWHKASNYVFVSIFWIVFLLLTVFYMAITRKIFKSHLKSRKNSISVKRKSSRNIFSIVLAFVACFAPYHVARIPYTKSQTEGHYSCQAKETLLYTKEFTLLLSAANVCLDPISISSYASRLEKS

phospholipase C = format: cell-based, rat
P2Y receptors = assay: Ca2+ signals; format: cell-based, rat; settings: for Δ[Ca2+]i Peak: peak increase in [Ca2+]i, populations of cultured ASMC; for pEC50 Peak (with Ca2+): peak response in HBS; for pEC50 Ca2+ entry: sustained Ca2+ entry signal; for Δ[Ca2+]i Sustained: sustained increase measured between 250 and 300 s, cultured ASMC; for pEC50 Peak (Ca2+-free): peak response in Ca2+-free HBS
[1] = ref Abbracchio et al., 2006; cited from earlier work
P2X1 and P2X3 receptors = settings: not shown
Gi/o = format: cell-based, rat

diphosphoric acid 1-α-D-glucopyranosyl ester 2-[(4′-methylthio)uridin-5″-yl] ester [MRS2690]
Ca2+ signals evoked in cultured ASMC (P2Y14 receptors): Neither MRS2690 (10 µM) nor UDP-glucose (10 µM) evoked Ca^2+ signals

COc1ccc2c(c1)CC[C@@H]1[C@@H]2CC[C@]2(C)[C@@H](NCCCCCCN3C(=O)C=CC3=O)CC[C@@H]12 [U73122, 1-[6-[[(17β)-3-methoxyestra-1,3,5 (10)-trien-17-yl]amino]hexyl]-1H-pyrrole-2,5-dione]
pIC50 for inhibition of Ca2+ signals evoked by ATP (phospholipase C; ATP 100 µM, inhibitor added 5 min before and during stimulation): 5.78 ± 0.07
Effect on Ca2+ responses to UTP and UDP (phospholipase C; not shown): abolished

[N-]=[N+]=N[C@@H]1[C@H](O)[C@@H](COP(=O)(O)OP(=O)(O)OP(=O)(O)O)O[C@H]1n1ccc(=O)[nH]c1=O [2′-azido-UTP, 2′-azido-2′-deoxyuridine-5′-triphosphate]
Δ[Ca2+]i Peak (P2Y receptors): 142 ± 29 nM
pEC50 Peak (with Ca2+) (P2Y receptors): 4.67 ± 0.32
pEC50 Ca2+ entry (P2Y receptors): 4.67 ± 0.06
Δ[Ca2+]i Sustained (P2Y receptors): 55 ± 20 nM

S=C=Nc1cccc(NC(=S)NCCCCNC(=S)Nc2cccc(N=C=S)c2)c1 [MRS2578, N,N″-1,4-butanediylbis [N′-(3-isothiocyanatophenyl)thio] urea]
Solubility in aqueous solution [1]: sparingly soluble
Stability in aqueous solution [1]: unstable

Nc1ncnc2c1ncn2C1OC(COP(=O)(O)CP(=O)(O)OP(=O)(O)O)C(O)C1O (stereo not drawn) [αβ-meATP, αβ-methylene-adenosine-5′-triphosphate]
Ca2+ response in cultured ASMC (P2X1 and P2X3 receptors): no response

N[C@@H]1[C@H](O)[C@@H](COP(=O)(O)OP(=O)(O)OP(=O)(O)O)O[C@H]1n1ccc(=O)[nH]c1=O [2′-amino-UTP, 2′-amino-2′-deoxyuridine-5′-triphosphate]
Δ[Ca2+]i Peak (P2Y receptors): 301 ± 34 nM
pEC50 Peak (with Ca2+) (P2Y receptors): 5.58 ± 0.37
pEC50 Ca2+ entry (P2Y receptors): 5.40 ± 0.23
Δ[Ca2+]i Sustained (P2Y receptors): 84 ± 36 nM

O=c1ccn([C@@H]2O[C@H](COP(=O)(O)OP(=O)(O)OP(=O)(O)O)[C@@H](O)[C@H]2O)c(=O)[nH]1 [UTP]
Δ[Ca2+]i Peak (P2Y receptors): 254 ± 47 nM
pEC50 Peak (Ca2+-free) (P2Y receptors): 5.39 ± 0.15
pEC50 Peak (with Ca2+) (P2Y receptors): 5.23 ± 0.22
pEC50 Ca2+ entry (P2Y receptors): 4.64 ± 0.32
Δ[Ca2+]i Sustained (P2Y receptors): 67 ± 5 nM

CSc1nc(N)c2ncn([C@H]3[C@H](O)[C@H](O)[C@]4(COP(=O)(O)OP(=O)(O)O)C[C@H]34)c2n1 [MRS2365, (N)-methanocarba-2-MeSADP]
Δ[Ca2+]i Peak (P2Y receptors): 154 ± 5 nM
pEC50 Peak (Ca2+-free) (P2Y receptors): 8.56 ± 0.06
pEC50 Peak (with Ca2+) (P2Y receptors): 8.68 ± 0.16
pEC50 Ca2+ entry (P2Y receptors): 8.11 ± 0.32
Δ[Ca2+]i Sustained (P2Y receptors): 18 ± 7 nM

COc1ccc2c(c1)CC[C@@H]1[C@@H]2CC[C@]2(C)[C@@H](NCCCCCCN3C(=O)CCC3=O)CC[C@@H]12 [U73343, 1-[6-[((17β)-3-methoxyestra-1,3,5 (10)-trien-17-yl)amino]hexyl]-2,5-pyrrolidinedione]
Effect on Ca2+ signals evoked by ATP (phospholipase C; ATP 100 µM, inactive analogue of U73122): no effect

Nc1ncnc2c1ncn2[C@@H]1O[C@H](COP(=O)(O)OP(=O)(O)OP(=O)(O)O)[C@@H](O)[C@H]1O [ATP]
Δ[Ca2+]i Peak (P2Y receptors): 248 ± 48 nM
pEC50 Peak (Ca2+-free) (P2Y receptors): 5.95 ± 0.10
pEC50 Peak (with Ca2+) (P2Y receptors): 5.83 ± 0.03
pEC50 Ca2+ entry (P2Y receptors): 5.01 ± 0.13
Δ[Ca2+]i Sustained (P2Y receptors): 64 ± 20 nM
pEC50 of ATP, peak Ca2+ signal, after Pertussis toxin (Gi/o): 5.30 ± 0.08
pEC50 of ATP, peak Ca2+ signal, without Pertussis toxin (Gi/o; paired control): 5.63 ± 0.09

O=c1ccn([C@@H]2O[C@H](COP(=O)(O)OP(=O)(O)O)[C@@H](O)[C@H]2O)c(=O)[nH]1 [UDP]
Δ[Ca2+]i Peak (P2Y receptors): 94 ± 20 nM
pEC50 Peak (Ca2+-free) (P2Y receptors): 6.16 ± 0.43
pEC50 Peak (with Ca2+) (P2Y receptors): 6.45 ± 0.45
pEC50 Ca2+ entry (P2Y receptors): 6.83 ± 0.35
Δ[Ca2+]i Sustained (P2Y receptors): 25 ± 6 nM

Pertussis toxin
Effect on responses to UDP (Gi/o; Pertussis toxin 100 ng·mL−1, 24 h): unaffected

O=c1ccn([C@@H]2O[C@H](COP(=O)(O)OP(=O)(O)OP(=O)(O)O)[C@@H](O)[C@H]2O)c(=S)[nH]1 [2-thio-UTP, 2-thio-uridine-5′-triphosphate]
Δ[Ca2+]i Peak (P2Y receptors): 327 ± 42 nM
pEC50 Peak (with Ca2+) (P2Y receptors): 5.89 ± 0.29
Δ[Ca2+]i Sustained (P2Y receptors): 88 ± 26 nM

CSc1nc(N)c2ncn([C@@H]3O[C@H](COP(=O)(O)OP(=O)(O)O)[C@@H](O)[C@H]3O)c2n1 [2-MeSADP, 2-methylthio-adenosine-5′-diphosphate]
Δ[Ca2+]i Peak (P2Y receptors): 122 ± 30 nM
pEC50 Peak (with Ca2+) (P2Y receptors): 7.23 ± 0.53
pEC50 Ca2+ entry (P2Y receptors): 5.58 ± 0.16
Δ[Ca2+]i Sustained (P2Y receptors): 18 ± 4 nM
